According to PubChem BioAssay (NCI):
“And” between values parts separate entries of the source, which are not always exact repeats. Equal entries are not always repeated.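 Growth conditions: 96-well plates. Treatment: test compound, 48 hours, 5 concentrations. Analysis: linear interpolation between bracketing concentrations; unreached endpoints set to highest concentration. At the GI50, growth is halved. TGI: concentration producing complete growth inhibition.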

Key:
Experiment in all cases: DTP human tumour cell line panel, 48 h
[1] = system: HCT-116 colon
[2] = system: HOP-62 NSCLC
[3] = system: K-562 leukemia
[4] = system: KM12 colon
[5] = system: M14 melanoma
[6] = system: NCI-H23 lung
[7] = system: OVCAR-4 ovarian
[8] = system: SNB-19 CNS
[9] = system: BT-549 breast
[10] = system: NCI/ADR-RES ovarian

Compound `O=c1[nH]c(=O)n(C2OC(COP(=O)(O)OP(=O)(O)O)C(O)C2O)cc1F` (stereo not given) has a TGI [1] of over 17 µM, a TGI [2] of 29.6 µM and a TGI [3] of over 50 µM. It also gave a TGI [4] of over 50 µM, a TGI [5] of over 50 µM and a TGI [6] of over 50 µM. The TGI [7] was over 26.3 µM and the TGI [8] was over 50 µM.
Work on `CCOC(=O)C(C)(C)Oc1ccc2c(=O)cc(-c3ccccc3)oc2c1` yielded a TGI [1] of 31.1 µM, a TGI [2] of 41 µM and a TGI [3] of 31.2 µM. The TGI [4] was 35.9 µM, the TGI [5] was 36.3 µM and the TGI [6] was 34.9 µM. The TGI [8] was 42.8 µM.
For `COC(=O)c1ccc(-c2nc(C#N)c(N)o2)cc1`, the TGI [9] was over 100 µM, the TGI [1] was over 100 µM and the TGI [2] was over 100 µM. It also gave a TGI [3] of over 100 µM, a TGI [4] of over 100 µM and a TGI [5] of over 100 µM. For the same compound, the TGI [6] was over 100 µM, the TGI [7] was over 100 µM and the TGI [8] was over 100 µM.
For `CC1(O)C=CC2CCC1C2O` (stereo not given), the TGI [1] was 36.2 µM, the TGI [2] was over 100 µM and the TGI [3] was over 100 µM. It also gave a TGI [4] of over 100 µM, a TGI [5] of over 100 µM and a TGI [6] of over 100 µM. The TGI [7] was over 100 µM and the TGI [8] was over 100 µM.
In the case of `N#CCCC1C(C#N)C2CC1C1C3C=CC(C3)C21` (stereo not given), the TGI [9] is reported as over 100 µM, the TGI [1] is reported as over 100 µM and the TGI [3] is reported as over 100 µM. For the same compound, the TGI [4] was over 100 µM, the TGI [5] was over 100 µM and the TGI [6] was over 100 µM. The TGI [10] was over 100 µM, the TGI [7] was over 100 µM and the TGI [8] was over 100 µM.
Compound `C#CCNC(Cc1cnc[nH]1)C(=O)O` (stereo not given) has a TGI [1] of over 100 µM, a TGI [2] of over 100 µM and a TGI [3] of over 100 µM. For the same compound, the TGI [4] was over 100 µM, the TGI [5] was over 100 µM and the TGI [10] was over 100 µM. It also gave a TGI [7] of over 100 µM and a TGI [8] of over 100 µM.
`OC1CCCC1C(O)(C(F)(F)F)C(F)(F)F` (stereo not given) was tested, and the TGI [1] was over 100 µM, the TGI [2] was over 100 µM and the TGI [3] was over 100 µM. The TGI [4] was over 100 µM, the TGI [5] was over 100 µM and the TGI [6] was over 100 µM. The TGI [10] was over 100 µM, the TGI [7] was over 100 µM and the TGI [8] was over 100 µM.
In the case of `CN1CCn2c(Br)ccc2C1=O`, the TGI [1] is reported as over 100 µM, the TGI [2] is reported as over 100 µM and the TGI [3] is reported as over 100 µM. For the same compound, the TGI [4] was over 100 µM, the TGI [5] was over 100 µM and the TGI [6] was over 100 µM. It also gave a TGI [7] of over 100 µM and a TGI [8] of over 100 µM.
With `Cc1nnc2cc(C(=O)O)c3ccccc3n2c1=O` the TGI [9] was over 10 µM, the TGI [1] was over 10 µM and the TGI [2] was over 10 µM. The TGI [3] was over 10 µM, the TGI [5] was over 10 µM and the TGI [6] was over 10 µM. The TGI [10] was over 10 µM, the TGI [7] was over 10 µM and the TGI [8] was over 10 µM.
`CCCCCc1cc2c(cc1O)CC[C@@H]1[C@@H]2CC[C@]2(C)[C@@H](O)CC[C@@H]12` was tested, and the TGI [1] was 31.6 µM, the TGI [2] was 41.7 µM and the TGI [3] was 34.9 µM. For the same compound, the TGI [4] was 26.1 µM, the TGI [5] was 29.4 µM and the TGI [6] was 40.3 µM. For the same compound, the TGI [10] was 37.7 µM, the TGI [7] was 42.8 µM and the TGI [8] was 40.3 µM.
`Cc1csc2c1C(=O)c1ccsc1C2=O` showed a TGI [1] of 4.7 µM, a TGI [3] of over 25.6 µM and a TGI [4] of 11 µM. The TGI [5] was 2.02 µM, the TGI [6] was 2.5 µM and the TGI [10] was 5.9 µM. The TGI [7] was 3.34 µM and the TGI [8] was 9.98 µM.
`COc1cc(C2C3=C(CCC3=O)Oc3cc4c(cc32)OCO4)cc(OC)c1OC` (stereo not given) was tested, and the TGI [1] was over 100 µM, the TGI [2] was 0.742 µM and the TGI [3] was over 100 µM. It also gave a TGI [5] of over 100 µM, a TGI [6] of over 100 µM and a TGI [7] of over 100 µM. The TGI [8] was over 100 µM.
`S=C(N/N=C\C=N/NC(=S)N1CCCCCC1)N1CCCCCC1` gave a TGI [9] of over 100 µM, a TGI [1] of over 100 µM and a TGI [2] of over 60.9 µM. For the same compound, the TGI [3] was over 100 µM, the TGI [4] was over 100 µM and the TGI [5] was over 100 µM. The TGI [6] was over 100 µM, the TGI [10] was over 85.9 µM and the TGI [8] was over 100 µM.
`CC(C)CCC[C@@H](C)[C@H]1CC[C@H]2[C@@H]3CC=C4C[C@@H](OC(=O)c5cccc6c(=O)c7ccccc7[nH]c56)CC[C@]4(C)[C@H]3CC[C@]12C` showed a TGI [9] of over 75 µM, a TGI [2] of over 75 µM and a TGI [3] of over 75 µM. It also gave a TGI [4] of over 75 µM, a TGI [5] of over 75 µM and a TGI [6] of over 75 µM. It also gave a TGI [10] of over 75 µM, a TGI [7] of over 75 µM and a TGI [8] of over 75 µM.
Work on `CC1(C)O[C@@H](CO)[C@H]([C@@]23OC[C@H]4OC(C)(C)OC4[C@@H]2OC(C)(C)O3)O1` (stereo not given in full) yielded a TGI [1] of over 100 µM, a TGI [2] of over 100 µM and a TGI [3] of over 100 µM. The TGI [4] was over 100 µM, the TGI [5] was over 100 µM and the TGI [6] was over 100 µM. The TGI [10] was over 100 µM, the TGI [7] was over 100 µM and the TGI [8] was over 100 µM.
Work on `Cc1cc(S(=O)(=O)Nc2nnc3c(C(F)(F)F)cc(Cl)cn23)c(S)cc1Cl` yielded a TGI [9] of over 100 µM, a TGI [1] of over 100 µM and a TGI [2] of over 100 µM. For the same compound, the TGI [3] was over 100 µM, the TGI [4] was over 100 µM and the TGI [5] was over 100 µM. The TGI [10] was over 100 µM, the TGI [7] was over 100 µM and the TGI [8] was over 100 µM.
In the case of `CN(C(=O)C1(C(=O)C=[N+]=[N-])CC1)c1ccccc1`, the TGI [9] is reported as over 100 µM, the TGI [1] is reported as over 100 µM and the TGI [2] is reported as over 100 µM. For the same compound, the TGI [3] was over 100 µM, the TGI [4] was over 100 µM and the TGI [5] was over 100 µM. For the same compound, the TGI [6] was over 100 µM, the TGI [10] was over 100 µM and the TGI [8] was over 100 µM.
Compound `N#CC1=C(N)C(C#N)(C#N)C(c2ccc(F)cc2)C=C1C1CC1` (stereo not given) has a TGI [9] of 12.5 µM, a TGI [1] of 15.8 µM and a TGI [2] of 25.8 µM. For the same compound, the TGI [3] was 41.9 µM, the TGI [4] was 16 µM and the TGI [5] was 15.8 µM. It also gave a TGI [6] of 13.8 µM, a TGI [10] of 41.8 µM and a TGI [8] of 27.9 µM.
For `CCOc1ccc2[nH]c3c(C)c4cc[n+](C)cc4c(C)c3c2c1`, the TGI [1] was 18.5 µM and > 37.7 µM, the GI50 [2] was 0.415 µM and 1.12 µM and the TGI [2] was 4.76 µM and 6.01 µM. For the same compound, the TGI [3] was 24.5 µM and 18.3 µM, the TGI [4] was 14.4 µM and 21.6 µM and the TGI [5] was 30.5 µM and 58.5 µM. The TGI [6] was 3.38 µM and 3.31 µM, the TGI [7] was 15.2 µM and 26.2 µM and the GI50 [8] was 0.297 µM and 0.707 µM. The TGI [8] was 1.26 µM and 3.37 µM.
`CC(C)(CO)CNc1nc(N)nc(Cl)c1N` gave a TGI [9] of over 100 µM, a TGI [1] of over 100 µM and a TGI [2] of over 100 µM. It also gave a TGI [3] of over 100 µM, a TGI [4] of over 100 µM and a TGI [6] of over 100 µM. For the same compound, the TGI [10] was over 100 µM, the TGI [7] was over 100 µM and the TGI [8] was over 100 µM.
With `Nc1nc(Cl)cc(N=Nc2ccccc2)n1` the TGI [9] was over 100 µM, the TGI [1] was 32.2 µM and the TGI [2] was 60.1 µM. For the same compound, the TGI [3] was over 100 µM, the TGI [4] was over 100 µM and the TGI [5] was over 100 µM. For the same compound, the TGI [6] was 55.5 µM, the TGI [10] was over 100 µM and the TGI [8] was over 100 µM.
Work on `CC(C)(C)N=C1CC(C)(C)c2ccccc2C(=Nc2ccccc2)S1` yielded a TGI [1] of over 100 µM, a TGI [2] of over 100 µM and a TGI [3] of over 100 µM. The TGI [4] was over 100 µM, the TGI [5] was over 100 µM and the TGI [6] was 98.6 µM. The TGI [8] was over 100 µM.
Work on `OC(c1ccc(Cl)cc1)(c1ccc(Cl)cc1)C(O)(c1ccc(Cl)cc1)c1ccc(Cl)cc1` yielded a GI50 [1] of 2.02 µM, a TGI [1] of over 100 µM and a GI50 [3] of 3.56 µM. It also gave a TGI [3] of over 100 µM, a GI50 [4] of 4.12 µM and a TGI [4] of over 100 µM. The GI50 [5] was 3.23 µM and the TGI [5] was over 100 µM.
Compound `CN=C(Nn1cnnc1)OC` has a TGI [1] of over 100 µM, a TGI [2] of over 100 µM and a TGI [3] of over 100 µM. The TGI [4] was over 100 µM, the TGI [5] was over 100 µM and the TGI [6] was over 100 µM. For the same compound, the TGI [10] was over 100 µM, the TGI [7] was over 100 µM and the TGI [8] was over 100 µM.
